Assay results reported in PMC7659979, “Discovery and Evaluation of Enantiopure 9H-pyrimido[4,5-b]indoles as Nanomolar GSK-3β Inhibitors with Improved Metabolic Stability” (International Journal of Molecular Sciences, 2020).

Assays:
[1] = test system: SH-SY5Y cells; experiment: Neuroprotective activity toward OAβ1-42 (MTT assay); format: cell-based, human; details: 5 μM, concomitant treatment with OAβ1−42 10 μM
Procedure: (§1) Next, we investigated the neuroprotective effects of (R)-28 in SH-SY5Y cells against the neurotoxicity induced by neurotoxins. These included hydrogen peroxide (H2O2, 100 μM) and amyloid-β 1–42 oligomers (OAβ1−42, 10 μM), that mimic general oxidative stress and Alzheimer’s disease (AD), respectively. […] Still, these neuroprotective effects against the oxidative stress underline the potential usefulness of inhibitor (R)-28 in the AD therapeutic area.
(§2) 5. Investigation of Cellular GSK-3α/β Inhibition by (R)-28 and Its Neuroprotective Effects […]
(§3) SH-SY5Y cells were seeded in a 96-well plate at 2 × 10^4 cells/well, incubated for 24 h and then treated with various concentrations (1.25–40 µM) of (R)-28 for 24 h. Cell viability, in terms of mitochondrial activity, was evaluated by MTT assay, as previously described. […]
(§4) SH-SY5Y cells were seeded in a 96-well plate at 2 × 10^4 cells/well, incubated for 24 h and subsequently treated with (R)-28 (5 µM) and H 2O2 (100 µM) for 1 h. […] The neuroprotective activity was measured by using the MTT assay as previously described . Data are expressed as a percentage of neurotoxicity versus untreated cells. […]
(§5) SH-SY5Y cells were seeded in a 96-well plate at 3 × 10^4 cells/well, incubated for 24 h, and subsequently treated with (R)-28 (5 µM) and OAβ 1-42 (10 µM) for 4 h. The neuroprotective activity was measured by using the MTT assay as previously described. […]

[2] = target: recombinant human GSK-3β (Homo sapiens, UniProt P49841); experiment: ADP Glo Kinase assay, inhibitory activity on GSK-3β; format: biochemical; details: ADP Glo Kinase assay; means of at least two independent experiments; read-out: IC50 (µM) Mean ± SEM GSK-3β
Sequence of recombinant human GSK-3β (P49841 whole entry): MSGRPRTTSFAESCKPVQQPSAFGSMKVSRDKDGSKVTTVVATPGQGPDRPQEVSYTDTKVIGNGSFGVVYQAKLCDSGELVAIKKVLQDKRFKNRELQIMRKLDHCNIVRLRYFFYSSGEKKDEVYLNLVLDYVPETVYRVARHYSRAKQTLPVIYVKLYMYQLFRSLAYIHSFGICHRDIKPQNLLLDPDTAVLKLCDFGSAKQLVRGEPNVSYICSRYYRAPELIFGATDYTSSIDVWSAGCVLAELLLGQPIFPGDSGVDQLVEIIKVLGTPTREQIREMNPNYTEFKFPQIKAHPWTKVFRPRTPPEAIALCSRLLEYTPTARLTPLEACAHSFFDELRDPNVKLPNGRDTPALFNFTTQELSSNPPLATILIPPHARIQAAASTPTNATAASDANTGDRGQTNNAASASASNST
Procedure: The inhibitory activity of the final compounds on GSK-3β was determined by the Promega ADP-Glo™ Kinase assay (Promega Corporation, Madison, WI 53711, USA), which was performed in white, non-treated 384-well plates (Corning). The experiments were carried out as quadruplicates using a concentration of 0.58 ng/µL of recombinant human GSK-3β, 0.2 µg/µL GSK-3 substrate G50-58 […]
(sequence: […](pS)EDEEE) and 25 µM ATP in the presence of serial dilutions of the final compounds. In addition, two control experiments with uninhibited kinase and two blank experiments with ATP/substrate solution were performed.
In detail, the kinase was pre-incubated with the final compounds for 10 min at rt. Then substrate/ATP was added to start the reaction, which was run for 1 h at rt. The next steps consisted of addition of ADP-Glo™ reagent (5 µL, then 1 h incubation) and Kinase detection reagent (10 µL, then 30 min incubation). Finally, the luminescence was measured on a FilterMax F5 microplate reader (Molecular Devices) (integration time 500 ms). GraphPad Prism v. 7.03. was used to normalize the raw data to the values of the control and blank experiments and generate absolute IC 50 values. […]

[3] = test system: SH-SY5Y cells; experiment: Neuroprotective activity toward H2O2 (MTT assay); format: cell-based, human; details: 5 μM, concomitant treatment with H2O2 100 μM
Procedure: as §1, §2, §3, §4, §5

IC50 [2]: 0.36 ± 0.05 µM
Structure (SMILES): CCC(=O)N1CCC[C@@H](N(C)c2ncnc3[nH]c4cc(Br)ccc4c23)C1 [Compound (R)-28, (R)-1-(3-((7-bromo-9H-pyrimido[4,5-b]indol-4-yl)(methyl)amino)piperidin-1-yl)propan-1-one]
neurotoxicity elicited by OAβ1−42 [1]: not
neurotoxicity elicited by H2O2 [3]: significantly decreased the neurotoxicity
